Reference: US20250223284A1, “REVERSIBLE DPP1 INHIBITORS AND USES THEREOF” (Insmed Incorporated, priority 2023, published 2025)

Molecular target: human DPP1 enzyme (Homo sapiens (Human), UniProt P53634)
Test: Human DPP1 Enzyme IC50 Assay
Type: biochemical
Details: recombinant human DPP1 activated with cathepsin L, H-Gly-Arg-AMC substrate, 10 min pre-incubation at 37° C., MES pH 6.0
Description: Recombinant human DPP1 enzyme (R&D Systems; Minneapolis, MN) was first proteolytically processed into its mature form using recombinant human cathepsin L (R&D Systems) in a buffer consisting of 20 mM citric acid pH 4.5, 150 mM NaCl, 1 mM EDTA and 10 mM DTT. Test articles were applied to activated human DPP1 enzyme in Assay Buffer (25 mM MES pH 6.0, 50 mM NaCl, 5 mM DTT) in a total reaction volume of 125 μL. 25 μL of compound in Assay Buffer plus 5% DMSO was first added to 50 μL of activated human DPP1 enzyme at a concentration of 1 ng/μL and allowed to pre-incubate for 10 minutes at 37° C. after which 50 μL of 1000 μM H-Gly-Arg-AMC substrate (Bachem; St. Torrance, CA) was added, giving final substrate concentration of 400 µM and a final DMSO concentration of 1%. Substrate cleavage was measured for 90 minutes at 37° C., with fluorescence at Excitation/Emission 350/450 nm measured every 5 minutes. DPP1 concentration was interpolated based on its activity relative to a standard curve of activated human recombinant DPP1 enzyme. IC50 values for each compound were calculated via the XLFit (IDBS Version 5.3.1.3) Add-On to Microsoft Excel using the four parameter fit equation y={A+[(B−A)]/[1+((C/x)^D)]}, which appears as equation number 205 (4 Parameter Logistic Model or Sigmoidal Dose-Response Model) in XLFit. Default constraints were used for each Parameter. IC50 was defined as the compound concentration at which 50% of enzyme activity was inhibited when compared to the no-compound control.

Chain of human DPP1 enzyme (P53634 25-134): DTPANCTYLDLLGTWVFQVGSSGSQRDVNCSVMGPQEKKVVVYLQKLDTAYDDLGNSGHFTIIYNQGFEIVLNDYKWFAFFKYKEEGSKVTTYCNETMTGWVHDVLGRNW
Chain of human DPP1 enzyme (P53634 231-394): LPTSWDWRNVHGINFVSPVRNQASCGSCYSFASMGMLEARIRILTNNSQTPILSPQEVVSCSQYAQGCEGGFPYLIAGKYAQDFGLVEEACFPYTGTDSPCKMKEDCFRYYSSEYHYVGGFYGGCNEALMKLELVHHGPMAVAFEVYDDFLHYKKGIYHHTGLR
Chain of human DPP1 enzyme (P53634 395-463): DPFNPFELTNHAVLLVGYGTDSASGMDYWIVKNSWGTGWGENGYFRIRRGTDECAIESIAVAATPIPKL

Compound | IC50 [nM]
CCO[C@@H]1CCNC[C@@H](C(=O)N[C@H](C#N)Cc2ccc(-c3ccc4oc(=O)n(C)c4c3)cc2)OC1 (single isomer, unassigned) [drawing 544] | 4.91 ± 0.9
Cn1c(=O)oc2ccc(-c3ccc(C[C@@H](C#N)NC(=O)[C@@H]4CNCCCCO4)cc3)cc21 (single isomer, unassigned) [drawing 535] | 22.3 ± 2
Cn1c(=O)oc2ccc(-c3ccc(C[C@@H](C#N)NC(=O)[C@@H]4CNCC(O)(C(F)(F)F)CO4)cc3)cc21 (single isomer, unassigned) | 3750
CC(C)[C@]1(O)CNC[C@@H](C(=O)N[C@H](C#N)Cc2ccc(-c3ccc4oc(=O)n(C)c4c3)cc2)OC1 (single isomer, unassigned) [drawing 520] | > 5000
Cn1c(=O)oc2ccc(-c3ccc(C[C@@H](C#N)NC(=O)[C@@H]4CNCCC(C)(O)CO4)cc3)cc21 (single isomer, unassigned) | 2240
Cn1c(=O)oc2ccc(-c3ccc(C[C@@H](C#N)NC(=O)C4CCCCCNC4)cc3)cc21 (stereo partly shown) [I-A] | 72.6
Cn1c(=O)oc2ccc(-c3ccc(C[C@@H](C#N)NC(=O)[C@@H]4CNC[C@](O)(CO)CO4)cc3)cc21 (single isomer, unassigned) | 781
CCO[C@@H]1CCO[C@H](C(=O)N[C@H](C#N)Cc2ccc(-c3ccc4oc(=O)n(C)c4c3)cc2)CNC1 (single isomer, unassigned) | 27
Cn1c(=O)oc2ccc(-c3ccc(C[C@@H](C#N)NC(=O)[C@@H]4CNC[C@@](C)(O)CCO4)cc3)cc21 (single isomer, unassigned) | 243
Cn1c(=O)oc2ccc(-c3ccc(C[C@@H](C#N)NC(=O)[C@@H]4CCCCCNC4)cc3)cc21 [drawing 550] | 603
Cn1c(=O)oc2ccc(-c3ccc(C[C@@H](C#N)NC(=O)[C@@H]4CNC[C@](C)(O)CO4)c(F)c3)cc21 (single isomer, unassigned) | 13.6 ± 2.1
CCO[C@]1(C)CNC[C@@H](C(=O)N[C@H](C#N)Cc2ccc(-c3ccc4oc(=O)n(C)c4c3)cc2)OC1 (single isomer, unassigned) [drawing 552] | 1680
CCC[C@]1(O)CNC[C@@H](C(=O)N[C@H](C#N)Cc2ccc(-c3ccc4oc(=O)n(C)c4c3)cc2)OC1 (single isomer, unassigned) | > 5000
CC[C@]1(O)CNC[C@@H](C(=O)N[C@H](C#N)Cc2ccc(-c3ccc4oc(=O)n(C)c4c3)cc2)OC1 (single isomer, unassigned) [drawing 519] | 2740
Cn1c(=O)oc2ccc(-c3ccc(C[C@@H](C#N)NC(=O)[C@@H]4CNC[C@](C)(O)CO4)cc3)cc21 (single isomer, unassigned) [drawing 514] | 314 ± 201
Cn1c(=O)oc2ccc(-c3ccc(C[C@@H](C#N)NC(=O)[C@@H]4CNC[C@@]5(CCO5)CO4)cc3)cc21 (single isomer, unassigned) [drawing 532] | 3.04 ± 0.8
C=C[C@]1(O)CNC[C@@H](C(=O)N[C@H](C#N)Cc2ccc(-c3ccc4oc(=O)n(C)c4c3)cc2)OC1 (single isomer, unassigned) | 1470
CC(C)CO[C@@]1(C)CNC[C@@H](C(=O)N[C@H](C#N)Cc2ccc(-c3ccc4oc(=O)n(C)c4c3)cc2)OC1 (single isomer, unassigned) | > 5000
Cn1c(=O)oc2ccc(-c3ccc(C[C@@H](C#N)NC(=O)[C@@H]4CNCCCCO4)cc3)cc21 (single isomer, unassigned) [drawing 513] | 25.1 ± 3.1
Cn1c(=O)oc2ccc(-c3ccc(C[C@@H](C#N)NC(=O)[C@@H]4CNCC5(CCCO5)CO4)cc3)cc21 (single isomer, unassigned) | 95.9 ± 4.4
Cn1c(=O)oc2ccc(-c3ccc(C[C@@H](C#N)NC(=O)[C@@H]4CNC[C@]5(CCO5)CO4)cc3)cc21 (single isomer, unassigned) | 729
Cn1c(=O)oc2ccc(-c3ccc(C[C@@H](C#N)NC(=O)C4CCCCCNC4)c(F)c3)cc21 (single isomer, unassigned) [drawing 548] | 15.8 ± 6.8
Cn1c(=O)oc2ccc(-c3ccc(C[C@@H](C#N)NC(=O)[C@@H]4CNC[C@](C)(O)CCO4)cc3)cc21 (single isomer, unassigned) | 23.2 ± 2

Compound | IC50 [nM]
Cn1c(=O)oc2ccc(-c3ccc(C[C@@H](C#N)NC(=O)[C@@H]4CNC[C@@](C)(O)CO4)c(F)c3)cc21 (single isomer, unassigned) | 14.1 ± 3
CC(C)CO[C@]1(C)CNC[C@@H](C(=O)N[C@H](C#N)Cc2ccc(-c3ccc4oc(=O)n(C)c4c3)cc2)OC1 (single isomer, unassigned) | > 5000
C=CCC1(O)CNC[C@@H](C(=O)N[C@H](C#N)Cc2ccc(-c3ccc4oc(=O)n(C)c4c3)cc2)OC1 (single isomer, unassigned) | 1020
CCO[C@@]1(C)CNC[C@@H](C(=O)N[C@H](C#N)Cc2ccc(-c3ccc4oc(=O)n(C)c4c3)cc2)OC1 (single isomer, unassigned) [drawing 551] | > 5000
CCO[C@H]1CCO[C@H](C(=O)N[C@H](C#N)Cc2ccc(-c3ccc4oc(=O)n(C)c4c3)cc2)CNC1 (single isomer, unassigned) | > 5000
Cn1c(=O)oc2ccc(-c3ccc(C[C@@H](C#N)NC(=O)C4CCCCCNC4)cc3)cc21 (stereo partly shown) [drawing 512] | 61.3 ± 9.9
Cn1c(=O)oc2ccc(-c3ccc(C[C@@H](C#N)NC(=O)[C@@H]4CNC[C@@H](O)CCO4)cc3)cc21 (single isomer, unassigned) | 198
CC[C@@]1(O)CNC[C@@H](C(=O)N[C@H](C#N)Cc2ccc(-c3ccc4oc(=O)n(C)c4c3)cc2)OC1 (single isomer, unassigned) [drawing 518] | 25.1
Cn1c(=O)oc2ccc(-c3ccc(C[C@@H](C#N)NC(=O)[C@@H]4CNCC[C@H](O)CO4)cc3)cc21 (single isomer, unassigned) | 67.4
CN1CC2(C1)OC(=O)c1ccc(-c3ccc(C[C@@H](C#N)NC(=O)[C@@H]4CNCCCCO4)cc3)cc12 (single isomer, unassigned) [drawing 536] | 30.9 ± 2
Cn1c(=O)oc2ccc(-c3ccc(C[C@@H](C#N)NC(=O)[C@@H]4CNCC5(CCO5)CO4)cc3)cc21 (single isomer, unassigned) [drawing 530] | 4.2 ± 0.8
CO[C@@H]1CCO[C@H](C(=O)N[C@H](C#N)Cc2ccc(-c3ccc4oc(=O)n(C)c4c3)cc2)CNC1 (single isomer, unassigned) [drawing 553] | 6.82 ± 0.5
Cn1c(=O)oc2ccc(-c3ccc(C[C@@H](C#N)NC(=O)C4CCCC(O)CNC4)cc3)cc21 (single isomer, unassigned) | 230
Cn1c(=O)oc2ccc(-c3ccc(C[C@@H](C#N)NC(=O)[C@@H]4CNC[C@@](O)(CO)CO4)cc3)cc21 (single isomer, unassigned) | 234
Cn1c(=O)oc2ccc(-c3ccc(C[C@@H](C#N)NC(=O)C4CCCCCNC4)cc3)cc21 (stereo partly shown) [drawing 511] | 85.6 ± 19.5
CO[C@H]1CCNC[C@@H](C(=O)N[C@H](C#N)Cc2ccc(-c3ccc4oc(=O)n(C)c4c3)cc2)OC1 (single isomer, unassigned) [drawing 554] | 17.4 ± 6
CO[C@H]1CCO[C@H](C(=O)N[C@H](C#N)Cc2ccc(-c3ccc4oc(=O)n(C)c4c3)cc2)CNC1 (single isomer, unassigned) | 1140
Cn1c(=O)oc2ccc(-c3ccc(C[C@@H](C#N)NC(=O)[C@@H]4CNCC(O)(Cc5ccccn5)CO4)cc3)cc21 (single isomer, unassigned) | > 5000
Cn1c(=O)oc2ccc(-c3ccc(C[C@@H](C#N)NC(=O)[C@H]4CCCCCNC4)cc3)cc21 | 49.8
CO[C@H]1CCNC[C@@H](C(=O)N[C@H](C#N)Cc2ccc(-c3ccc4oc(=O)n(C)c4c3)cc2)OC1 (single isomer, unassigned) [drawing 547] | 74.7
CCC[C@@]1(O)CNC[C@@H](C(=O)N[C@H](C#N)Cc2ccc(-c3ccc4oc(=O)n(C)c4c3)cc2)OC1 (single isomer, unassigned) | 769
Cn1c(=O)oc2ccc(-c3ccc(C[C@@H](C#N)NC(=O)[C@H]4CCCCCNC4)c(F)c3)cc21 (single isomer, unassigned) [drawing 549] | 140 ± 59.3
CCO[C@H]1CCNC[C@@H](C(=O)N[C@H](C#N)Cc2ccc(-c3ccc4oc(=O)n(C)c4c3)cc2)OC1 (single isomer, unassigned) | 457
